Data published in patent publication US20110053916A1 (Vertex Pharmaceuticals Incorporated, priority 2009, published 2011).

target: T1, PknB (Mycobacterium tuberculosis, UniProt P9WI81); experiment: biochemical; parameters: species or system M. tuberculosis; details: 3 nM PknB, 6 uM GarA, 3 μM ATP, 30 min; competitive tight-binding fit; several symbols in a cell = repeat determinations
T1 construct: made in house
T1 sequence (P9WI81 whole entry): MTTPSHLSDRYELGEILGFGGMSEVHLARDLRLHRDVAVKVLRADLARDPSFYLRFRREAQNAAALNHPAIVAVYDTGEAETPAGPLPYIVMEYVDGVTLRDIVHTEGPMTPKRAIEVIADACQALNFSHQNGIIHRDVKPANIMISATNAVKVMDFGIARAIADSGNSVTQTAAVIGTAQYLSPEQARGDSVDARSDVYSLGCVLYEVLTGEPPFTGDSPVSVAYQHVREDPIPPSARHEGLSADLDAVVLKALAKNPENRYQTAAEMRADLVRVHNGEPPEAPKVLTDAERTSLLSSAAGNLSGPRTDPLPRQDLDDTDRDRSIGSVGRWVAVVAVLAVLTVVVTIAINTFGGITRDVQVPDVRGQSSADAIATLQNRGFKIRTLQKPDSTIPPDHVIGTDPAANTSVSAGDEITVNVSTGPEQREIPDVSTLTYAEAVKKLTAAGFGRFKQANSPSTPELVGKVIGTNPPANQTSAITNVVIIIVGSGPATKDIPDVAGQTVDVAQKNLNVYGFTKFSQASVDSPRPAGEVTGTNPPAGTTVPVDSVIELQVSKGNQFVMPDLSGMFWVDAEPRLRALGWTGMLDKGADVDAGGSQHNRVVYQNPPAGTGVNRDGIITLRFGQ

Structure (SMILES) | Ki Values
NS(=O)(=O)c1ccc(-c2ncc(C#CCO)c(Nc3cc(C4CC4)[nH]n3)n2)s1 [Compound 217, 5-(4-(5-Cyclopropyl-1H-pyrazol-3-ylamino)-5-(3-hydroxyprop-1-ynyl)pyrimidin-2-yl)thiophene-2-sulfonamide] | A**, A*
Cc1cnc(-c2cccs2)nc1Nc1cc(C2CC2)[nH]n1 [Compound 38, N-(5-cyclopropyl-1H-pyrazol-3-yl)-5-methyl-2-(thiophen-2-yl)pyrimidin-4-amine] | A*, A
O=S(=O)(NCCO)c1ccc(-c2ncc(Cl)c(Nc3cc(C4CC4)[nH]n3)n2)cc1 [Compound 61, 4-[5-chloro-4-[(5-cyclopropyl-1H-pyrazol-3-yl)amino]-pyrimidin-2-yl]-N-(2-hydroxyethyl)benzenesulfonamide] | A, C, D
c1cc(Nc2cc(C3CC3)[nH]n2)nc(N2CCC(N3CCCCC3)CC2)n1 [Compound 65, N-(5-cyclopropyl-1H-pyrazol-3-yl)-2-[4-(1-piperidyl)-1-piperidyl]-pyrimidin-4-amine] | C, D, D
C#Cc1cnc(-c2ccc(S(=O)(=O)NC(=O)C(C)(C)C)s2)nc1Nc1cc(C2CC2)[nH]n1 [Compound 201, N-[[5-[4-[(5-cyclopropyl-1H-pyrazol-3-yl)amino]-5-ethynyl-pyrimidin-2-yl]-2-thienyl]sulfonyl]-2,2-dimethyl-propanamide] | B*, B*, B
CC(=O)c1ccc(-c2ncc(Cl)c(Nc3cc(C4CC4)[nH]n3)n2)s1 [Compound 116, 1-(5-(5-chloro-4-(5-cyclopropyl-1H-pyrazol-3-ylamino)pyrimidin-2-yl)thiophen-2-yl)ethanone] | A**, A*
N#CCc1ccc(Nc2ncc(Cl)c(Nc3cc(C4CC4)[nH]n3)n2)cc1 [Compound 59, 2-[4-[[5-chloro-4-[(5-cyclopropyl-1H-pyrazol-3-yl)amino]-pyrimidin-2-yl]amino]phenyl]acetonitrile] | B**, B*, B*

same assay, conditions: 3 nM PknB, 6 uM GarA, 3 μM ATP, 30 min; competitive tight-binding fit; several symbols in a cell = repeat determinations; read-out: Ki Values

Structure (SMILES) | Ki [nM]
CC(=O)c1ccc(-c2ncc(F)c(Nc3cc(C4CC4)[nH]n3)n2)s1 [Compound 137, 1-(5-(4-(5-cyclopropyl-1H-pyrazol-3-ylamino)-5-fluoropyrimidin-2-yl)thiophen-2-yl)ethanone] | 10 to 50
C#Cc1cnc(N2CCCN(C)CC2)nc1Nc1cc(C2CC2)[nH]n1 [Compound 248, N-(5-cyclopropyl-1H-pyrazol-3-yl)-5-ethynyl-2-(4-methyl-1,4-diazepan-1-yl)-pyrimidin-4-amine] | > 4000
C#Cc1cnc(-c2ccc(CO)s2)nc1Nc1cc(C2CC2)[nH]n1 [Compound 196, (5-(4-(5-cyclopropyl-1H-pyrazol-3-ylamino)-5-ethynylpyrimidin-2-yl)thiophen-2-yl)methanol] | 10 to 50
N#CCc1ccc(-c2nccc(Nc3cc(C4CC4)[nH]n3)n2)cc1 [Compound 17, 2-(4-(4-(5-cyclopropyl-1H-pyrazol-3-ylamino)pyrimidin-2-yl)phenyl)acetonitrile] | 10 to 50
C#Cc1cnc(N2CCCNCC2)nc1Nc1cc(C2CC2)n[nH]1 [Compound 174, N-(5-cyclopropyl-2H-pyrazol-3-yl)-2-(1,4-diazepan-1-yl)-5-ethynyl-pyrimidin-4-amine] | 2000 to 4000
NS(=O)(=O)C/C=C/c1nccc(Nc2cc(C3CC3)[nH]n2)n1 [Compound 54, 3-[4-[(5-cyclopropyl-1H-pyrazol-3-yl)amino]pyrimidin-2-yl]prop-2-ene-1-sulfonamide] | 1000 to 2000
CC(=O)NCCNS(=O)(=O)c1cccc(-c2ncc(Cl)c(Nc3cc(C4CC4)[nH]n3)n2)c1 [Compound 96, N-[2-[[3-[5-chloro-4-[(5-cyclopropyl-1H-pyrazol-3-yl)amino]-pyrimidin-2-yl]phenyl]sulfonylamino]ethyl]acetamide] | 10 to 50
NS(=O)(=O)c1ccc(-c2ncc(/C=C/CO)c(Nc3cc(C4CC4)[nH]n3)n2)s1 [Compound 281, (E)-5-(4-(5-cyclopropyl-1H-pyrazol-3-ylamino)-5-(3-hydroxyprop-1-enyl)pyrimidin-2-yl)thiophene-2-sulfonamide] | 1 to 10
CSc1cc(Nc2cc(C3CC3)n[nH]2)nc(-c2ccc(S(N)(=O)=O)s2)n1 [Compound 291, 5-[4-[(5-cyclopropyl-2H-pyrazol-3-yl)amino]-6-methylsulfanyl-pyrimidin-2-yl]thiophene-2-sulfonamide] | 100 to 500
C#Cc1cnc(-c2ccc([C@H](O)CC)s2)nc1Nc1cc(C2CC2)[nH]n1 [Compound 213, 1-[5-[4-[(5-cyclopropyl-1H-pyrazol-3-yl)amino]-5-ethynyl-pyrimidin-2-yl]-2-thienyl]propan-1-ol] | 1 to 10
N#CCc1ccc(-c2ncc(N)c(Nc3cc(C4CC4)[nH]n3)n2)cc1 [Compound 92, 2-(4-(5-amino-4-(5-cyclopropyl-1H-pyrazol-3-ylamino)pyrimidin-2-yl)phenyl)acetonitrile] | 10 to 50
C#Cc1cnc(N2CCN(C)CC2)nc1Nc1cc(C2CC2)[nH]n1 [Compound 177, N-(5-cyclopropyl-1H-pyrazol-3-yl)-5-ethynyl-2-(4-methylpiperazin-1-yl)-pyrimidin-4-amine] | 2000 to 4000
C#Cc1cnc(N2CCCC2)nc1Nc1cc(C2CC2)[nH]n1 [Compound 178, N-(5-cyclopropyl-1H-pyrazol-3-yl)-5-ethynyl-2-pyrrolidin-1-yl-pyrimidin-4-amine] | 100 to 500
Cc1nc(-c2ncc(Cl)c(Nc3cc(C4CC4)[nH]n3)n2)sc1C(C)O (stereo not drawn) [Compound 296, 1-(2-(5-chloro-4-(5-cyclopropyl-1H-pyrazol-3-ylamino)pyrimidin-2-yl)-4-methylthiazol-5-yl)ethanol] | 100 to 500
N#Cc1ccc(Nc2ncc(Cl)c(Nc3cc(C4CC4)[nH]n3)n2)cc1 [Compound 84, 4-[[5-chloro-4-[(5-cyclopropyl-1H-pyrazol-3-yl)amino]-pyrimidin-2-yl]amino]benzonitrile] | 10 to 50
NS(=O)(=O)c1cccc(-c2ncc(F)c(Nc3cc(C4CC4)[nH]n3)n2)c1 [Compound 35, 3-[4-[(5-cyclopropyl-1H-pyrazol-3-yl)amino]-5-fluoro-pyrimidin-2-yl]benzenesulfonamide] | 10 to 50

Structure (SMILES) | Ki [nM]
CN(C)c1cc(Nc2cc(C3CC3)n[nH]2)nc(-c2ccc(S(N)(=O)=O)s2)n1 [Compound 282, 5-[4-[(5-cyclopropyl-2H-pyrazol-3-yl)amino]-6-dimethylamino-pyrimidin-2-yl]thiophene-2-sulfonamide] | 2000 to 4000
C#Cc1cnc(-c2ccc(C(O)C(=O)OCC)s2)nc1Nc1cc(C2CC2)[nH]n1 (stereo not drawn) [Compound 233, ethyl 2-[5-[4-[(5-cyclopropyl-1H-pyrazol-3-yl)amino]-5-ethynyl-pyrimidin-2-yl]-2-thienyl]-2-hydroxy-acetate] | 10 to 50
CC(C)(C)NS(=O)(=O)C/C=C/c1nccc(Nc2cc(C3CC3)[nH]n2)n1 [Compound 56, 3-[4-[(5-cyclopropyl-1H-pyrazol-3-yl)amino]pyrimidin-2-yl]-N-tert-butyl-prop-2-ene-1-sulfonamide] | 1000 to 2000
NS(=O)(=O)c1ccc(-c2ncc(CCCO)c(Nc3cc(C4CC4)[nH]n3)n2)s1 [Compound 319, 5-[4-[(5-cyclopropyl-1H-pyrazol-3-yl)amino]-5-(3-hydroxypropyl)pyrimidin-2-yl]thiophene-2-sulfonamide] | 1 to 10
CNS(=O)(=O)c1ccc(-c2nccc(Nc3cc(C4CC4)[nH]n3)n2)s1 [Compound 48] | 1 to 10
O=C(O)c1ccc(-c2ncc(Cl)c(Nc3cc(C4CC4)n[nH]3)n2)s1 [Compound 156, 5-(5-chloro-4-(3-cyclopropyl-1H-pyrazol-5-ylamino)pyrimidin-2-yl)thiophene-2-carboxylic acid] | 50 to 100
C#Cc1cnc(N2CCNCC2)nc1Nc1cc(C2CC2)n[nH]1 [Compound 175] | 2000 to 4000
NNS(=O)(=O)c1ccc(-c2ncc(Cl)c(Nc3cc(C4CC4)[nH]n3)n2)s1 [Compound 251, 5-(5-chloro-4-(5-cyclopropyl-1H-pyrazol-3-ylamino)pyrimidin-2-yl)thiophene-2-sulfonohydrazide] | 10 to 50
CC(C)(C)NS(=O)(=O)c1ccc(-c2ncc(CO)c(Nc3cc(C4CC4)[nH]n3)n2)s1 [Compound 163, N-tert-butyl-5-(4-(5-cyclopropyl-1H-pyrazol-3-ylamino)-5-(hydroxymethyl)pyrimidin-2-yl)thiophene-2-sulfonamide] | 100 to 500
C#Cc1cnc(-c2ccc(S(=O)(=O)NCCNC(=O)C(C)(C)C)s2)nc1Nc1cc(C2CC2)n[nH]1 [Compound 183, N-(2-(5-(4-(5-cyclopropyl-1H-pyrazol-3-ylamino)-5-ethynylpyrimidin-2-yl)thiophene-2-sulfonamido)ethyl)pivalamide] | 50 to 100
NS(=O)(=O)c1ccc(-c2ncc(Cl)c(Nc3cc(-c4ccco4)[nH]n3)n2)s1 [Compound 247, 5-[5-chloro-4-[[5-(2-furyl)-1H-pyrazol-3-yl]amino]-pyrimidin-2-yl]thiophene-2-sulfonamide] | 100 to 500
Brc1cnc(-c2ccccc2)nc1Nc1cc(C2CC2)n[nH]1 [Compound 8, 5-Bromo-N-(5-cyclopropyl-1H-pyrazol-3-yl)-2-phenylpyrimidin-4-amine] | 100 to 500
C#Cc1cnc(-c2ccc(CC#N)cc2)nc1Nc1cc(C2CC2)[nH]n1 [Compound 85, 2-(4-(4-(5-cyclopropyl-1H-pyrazol-3-ylamino)-5-ethynylpyrimidin-2-yl)phenyl)acetonitrile] | 10 to 50
C#Cc1cnc(N2CCN(C(C)=O)CC2)nc1Nc1cc(C2CC2)n[nH]1 [Compound 185, 1-[4-[4-[(5-cyclopropyl-2H-pyrazol-3-yl)amino]-5-ethynyl-pyrimidin-2-yl]piperazin-1-yl]ethanone] | 500 to 1000
NS(=O)(=O)c1cccc(-c2ncc(Cl)c(Nc3cc(C4CC4)[nH]n3)n2)c1 [Compound 30, 3-[5-chloro-4-[(5-cyclopropyl-1H-pyrazol-3-yl)amino]-pyrimidin-2-yl]benzenesulfonamide] | 10 to 50
CN1CCN(c2nccc(Nc3cc(C4CC4)[nH]n3)n2)CC1 [Compound 47, N-(5-cyclopropyl-1H-pyrazol-3-yl)-2-(4-methylpiperazin-1-yl)-pyrimidin-4-amine] | > 4000
